Experimental data as given in patent publication US12616672B2, “Methods for assessing risk of cardiovascular disease and methods and compounds for use in treating or preventing cardiovascular disease” (Queen Mary University of London, priority 2017, dated 2026).

What was measured:
[1] = tested on: Apo E^−/− mice; test: Apo E−/− mice given RvD5n-3 DPA: aortic arch Oil red-O staining; assay type: in vivo; settings: 100 ng/mouse i.v., alternate days, 2 weeks; vs vehicle
Method: Mice (male and female) were fed a western diet for 6 weeks from 4 weeks of age and kept of a 12 h light dark cycle. At 8 weeks of age, mice were given RvD5n-3 DPA (100 ng/mouse; i.v.) or vehicle on alternate days for a 2-week period. Mice were culled, aortic arches were collected and stained using oil-red O as in Khambata R S et al. Anti-inflammatory actions of inorganic nitrate stabilize the atherosclerotic plaque. Proc Natt Acad Sci USA. 2017; 114(4):E550-E559, the contents of which are incorporated herein by reference. Staining intensity was determined using image processing software and expressed as relative units per mm^2. The descending aorta was collected, placed in ice-cold methanol and lipid mediators identified and quantified as described above.

[2] = tested on: peripheral blood leukocytes and platelets from CVD patients; test: CVD patient whole blood incubated with RvD2n-3 DPA or RvD5n-3 DPA then PAF, flow cytometry; assay type: cell-based, human; settings: 15 min then PAF 30 min
Method: (§1) Whole blood was incubated with RvD2n-3 DPA or RvD5n-3 DPA (0.1 nM, 1 nM or 10 nM) or vehicle (PBS containing 0.01% EtOH) for 15 min then with PAF (100 ng/ml) for 30 min (37° C.). Expression of CD62P on (A) neutrophils (B) monocytes and CD11b on (C) neutrophils and (D) monocytes was investigated using flow cytometry and fluorescently labelled antibodies. Results are mean±s.em. and expressed as percentage of PAF incubated cells. n=9 patients per interval. * p<0.05 vs Veh group using one-sample t test, followed by Sidak correction of p values.
as §1, with “labeled” for “labelled”, “group.” for “interval.”, “PAF” for “Veh”, “Wilcoxon Signed Rank Test.” for “one-sample t test, followed by Sidak correction of p values.”
(§2) After stimulation, samples were washed twice with PBS for 12 min at 800×g. Samples were stained for flow cytometry as described below.
(§3) Whole blood was incubated with lineage-specific markers for 45 min (4° C., in DPBS containing 0.02% BSA). The following anti-human antibodies were used: VioBlue-anti-CD41, PE-Cy5-anti-CD62P, Brilliant Violet 711-anti-CD11b, APC-Cy7-anti-CD16, Alexa Fluor 647-anti-CD14. After staining, red blood cells were lysed using Whole Blood Lysing Reagent Kit, according to the manufacturer's instructions. Data was collected using a flow cytometer and analysis was conducted using appropriate software.

[3] = tested on: healthy volunteer peripheral blood neutrophils, monocytes and platelets; test: Healthy volunteer whole blood incubated with RvDn-3 DPA then PAF, flow cytometry of activation markers; assay type: cell-based, human; settings: 0.1, 1, 10 nM, 15 min then PAF 30 min
Method: Blood was collected from healthy volunteers and incubated with RvD2n-3 DPA, RvD5n-3 DPA (0.1 nM, 1 nM or 10 nM) or vehicle (PBS) for 15 min (37° C.) then with PAF (100 ng/ml; 30 min; 37° C.). Cell activation and leukocyte-platelet aggregates were assessed using flow cytometry. (A,B) Representative histograms depicting neutrophil (A) CD11b and (B) CD62P expression. (C,D) Cumulative neutrophil ([…]) CD11b and (D) CD62P expression. (E,F) Monocyte (E) CD11b and (F) CD62P expression. Results are mean of n=5 per time point and expressed as percentage change from PAF incubated cells. *p<0.05 compared to PAF using one-sample t test, followed by Sidak correction of p values.
(§4) Blood was collected from healthy volunteers and incubated with RvD2n-3 DPA, RvD5n-3 DPA (0.1 nM, 1 nM or 10 nM) or vehicle (PBS) for 15 min (37° C.) then with PAF (100 ng/ml; 30 min; 37° C.). Cell activation and leukocyte-platelet aggregates were assessed using flow cytometry. (A,B) Images depicting platelet monocyte (A) and (B) platelet-neutrophil aggregates. Results are representative of n=3 distinct experiments. (C,D) Cumulative neutrophil (C) CD11b and (D) CD62P expression. (E,F) Monocyte (E) CD11b and (F) CD62P expression. Results are mean of n=5 per condition and expressed as percentage change from PAF incubated cells. *p<0.05 compared to PAF using Wilcoxon Signed Rank Test. (G) Platelet rich plasma was incubated with vehicle (PBS) or RvD5n-3 DPA 0.1-10 nM (15 min; 37° C.) and PAF (100 nM; 30 min; 37° C.). Adhesion molecule expression evaluated using flow cytometry. Results are mean±s.e.m. n=5 healthy volunteers. * p, 0.05 compared to Vehicle group using Friedman's test followed by Dunn's multiple comparisons test.
as §2, §3

[4] = tested on: platelet rich plasma; test: PRP incubations with RvD5n-3 DPA then PAF, platelet adhesion molecule expression by flow cytometry; assay type: cell-based, human; settings: 0.1-10 nM, 15 min, then PAF 100 nM 30 min
Method: as §4, with “FIG. 21: RvD2n-3 DPA” for “Blood was collected from healthy volunteers”, “and” for “and incubated with RvD2n-3 DPA,”, “reduce monocyte, neutrophil and platelet activation in healthy volunteer peripheral blood. […]” for “(0.1 nM, 1 nM or 10 nM) or vehicle (PBS) for 15 min (37° C.) then with PAF (100 ng/ml; 30 min; 37° C.).”
Peripheral blood from healthy volunteers was collected in acidified-citrate-dextrose. Blood was centrifuged at 500×g for 20 min. PRP was collected and cells incubated with RvD5n-3 DPA or vehicle (0.01% EtOH+PBS) for 15 min at 37° C. Cells were then incubated with PAF (100 nM) or Vehicle (0.01% EtOH) for 30 min at 37° C. Cells were then washed with PBS and cellular activation was assessed using flow cytometry as detailed below.
In select experiments platelet adhesion molecule expression was assessed. Here platelets were incubated with fluorescently labelled mouse anti-human VioBlue-anti-CD41, PE-Cy5-anti-CD62P, PerCP/Cy5.5-anti-CD63 and FITC-ant-CD42b for 30 min at 4° C. Cells were then washed and fluorescence, staining evaluated using LSRFortessa cell analyser (BD Biosciences) and analysed using FlowJo software (Tree Star Inc., V10).

CC/C=C\C[C@H](O)/C=C/C=C\C/C=C\C=C\[C@@H](O)CCCCCC(=O)O [RvD5n-3 DPA, 7,17-trihydroxy-8E,10,13,15E,19Z-docosapentaenoic acid]
aortic lesions (Oil red-O staining) [1]: significant reduction | expression of CD11b on monocytes [2]: decreased | expression of CD11b on neutrophils [2]: decreased | platelet-monocyte aggregates measured as CD62P and CD41 expression [2]: decreases | platelet-neutrophil aggregates measured as CD62P and CD41 expression [2]: decreases | leukocyte-platelet aggregates [3]: dose-dependent decreases | monocyte expression of CD11b ([3]; vs PAF alone): dose-dependent decreases | neutrophil CD11b expression ([3]; vs PAF alone): dose-dependent decreases | PAF mediated upregulation of CD41 expression on platelets [4]: dose dependent reduction | PAF mediated upregulation of CD62P expression on platelets [4]: dose dependent reduction | PAF mediated upregulation of CD63 expression on platelets [4]: dose dependent reduction
